This passage reports GI50 results from patent US20060205677A1 (XenoPort, Inc., priority 2005, published 2006).

Common to all, as to assay type: cell-based, human
The subject of assay [1] is Calu-6 cells. Description: In vitro cytotoxicity (Alamar blue growth inhibition), Calu-6. To be noted: Calu-6, 48 h. The procedure: (§1) The effect of experimental compounds on cancer cell growth and viability was measured in a panel of human cancer cells grown in vitro. All cancer cell lines were obtained from the American […]. Cells were maintained in the following media: TUR, H69AR, Calu-6, ME180, and PC3 cells were grown in RPMI medium containing 4.5 g/L glucose, 10% FBS, 4 mM L-glutamine, and 1 mM sodium pyruvate); and HT29 cells were grown in DMEM with 4.5 g/L glucose, 10% FBS, and 6 mM L-glutamine. All cells were grown at 37° C. in 5% CO2 and passaged bi-weekly.
(§2) For cytoxicity studies, cells were seeded into 96-well clear-bottom microtiter plates at the following densities: TUR (7,500 cells/well), HT29 (5,000 cells/well), H69AR (10,000 cells/well), Calu-6 (15,000 cells/well), and ME180 (2,500 cells/well). Cells were maintained at 37° C. with 5% CO2 for 24 hours prior to addition of various experimental compounds. Each condition was measured in triplicate. For compounds dissolved in DMSO, the final DMSO concentration in each well and in the non-drug treated control cells was constant and below 1% in all studies. The number of viable cells was determined after 24, 48, and 72 hours using Alamar blue fluorescence. Briefly, Alamar blue (10 mM) was added to each well for 4 hours, and the number of viable cells estimated by measuring the fluorescence of reduced Alamar blue (530 nm excitation, 590 nm emission). To correct for background fluorescence, cells were treated with 100% DMSO to eliminate all viable cells. The effect of drug on cell growth was determined by calculating the fraction of live cells treated with drug compared to untreated cells: (F1drug treated−F1DMSO killed)/(F1untreated−F1DMSO killed).

In assay [2] the test system is H69AR cells. Description: In vitro cytotoxicity (Alamar blue growth inhibition), H69AR. To be noted: 48 h. The procedure: as §1, §2
A general note: Resazurin is reduced to fluorescent resorufin, in cell work by metabolically active cells.

Assay [3] concerns HT29 cells. Kind of assay: In vitro cytotoxicity (Alamar blue growth inhibition), HT29. To be noted: HT29, 48 h. As to the method:
as §1, §2

In assay [4] the test system is ME180 cells. Description: In vitro cytotoxicity (Alamar blue growth inhibition), ME180. The settings on record: ME180, 48 h. As to the method:
as §1, §2

Assay [5] relates to PC3 cells. Kind of assay: In vitro cytotoxicity (Alamar blue growth inhibition), PC3. To be noted: PC3, 48 h. As to the method: as §1, §2
Assay [6] deals with TUR cells. Description: In vitro cytotoxicity (Alamar blue growth inhibition), TUR. To be noted: 48 h. As to the method: as §1, §2

By GI50 is commonly meant the concentration giving 50% growth inhibition. A lower GI50 goes with greater sensitivity of the cells. `O=C(CCC1C(=O)[O][Pt]2([NH]C3CCCCC3[NH]2)[O]C1=O)NC1OC(CO)C(O)C(O)C1O` [(42), [1R,2R-Cyclohexanediamine-N,N′][{2-(β-D-Galactopyranos-1-ylamido)ethyl}propanedioato(2-)-O,O′]Platinum (II)]: the GI50 in assay [1] came to 131 µM; in assay [2], 188 µM; in assay [3], 860 µM; in assay [4], 4 µM; in assay [5] it was 45 µM; in assay [6], 22 µM.
In the case of `O=C(CCC1C(=O)[O][Pt]2([NH]C3CCCCC3[NH]2)[O]C1=O)NC1OC(CO)C(O)C(O)C1O` [(45), [1R,2R-Cyclohexanediamine-N,N′][{2-(β-D-Mannopyranos-1-ylamido)ethyl}propanedioato(2-)-O,O′]Platinum (II)], the GI50 in assay [2] was 84 µM; in assay [6], 28 µM.
Consider `O=C(CCCC1C(=O)[O][Pt]2([NH]C3CCCCC3[NH]2)[O]C1=O)NC1OC(CO)C(O)C(O)C1O` [(51), [1R,2R-Cyclohexanediamine-N,N′][{3-(β-D-Galactopyranos-1-ylamido)propyl}propanedioato(2-)-O,O′]Platinum (II)], for which the GI50 stood at 255 µM in assay [1]; 286 µM in assay [2]; 374 µM in assay [3]; 5 µM in assay [4]; 84 µM in assay [5]; 37 µM in assay [6].
Turning to `N.N.O=C(CCCC1C(=O)[O][Pt][O]C1=O)NCC1OC(O)C(O)C(O)C1O` [(60), [Diammine][{3-(α,β-D-Galactopyranos-6-ylamido)propyl}propanedioato(2-)-O,O′]Platinum (II)], the GI50 in assay [2] was found to be 79 µM; in assay [6] it was 117 µM.
`O=C(CCCC1C(=O)[O][Pt]2([NH]C3CCCCC3[NH]2)[O]C1=O)NCC1OC(O)C(O)C(O)C1O` [(66), [1R,2R-Cyclohexanediamine-N,N′][{3-(α,β-D-Glucopyranos-6-ylamido)propyl}propanedioato(2-)-O,O′]Platinum (II)]: the GI50 in assay [1] was 163 µM; in assay [2], 102 µM; in assay [3], 222 µM; in assay [4], 7 µM; in assay [6], 15 µM.
On to `COC1OC(CNC(=O)CCCC2C(=O)[O][Pt]3([NH]C4CCCCC4[NH]3)[O]C2=O)C(O)C(O)C1O` [(67), [1R, 2R-Cyclohexanediamine-N,N′][{3-(Methyl-α-D-Glucopyranos-6-ylamido)propyl}propanedioato(2-)-O,O′]Platinum (II)], for which the GI50 in assay [1] stood at 68 µM; in assay [2] it was 185 µM; in assay [3], 234 µM; in assay [4], 5 µM; in assay [6] it was 21 µM.
Regarding `O=C1[O][Pt]2([NH]C3CCCCC3[NH]2)[O]C(=O)C1CCNC(=O)C1OC(O)C(O)C(O)C1O` [(74), [1R,2R-Cyclohexanediamine-N,N′][{2-(α,β-D-Glucuron-6-yl-amido)ethyl}propanedioato(2-)-O,O′]Platinum (II)], the GI50 in assay [2] and in assay [6] was 53 µM in each case.
Turning to `O=C1[O][Pt]2([NH]C3CCCCC3[NH]2)[O]C(=O)C1CCNC(=O)C1OC(O)C(O)C(O)C1O` [(77), [1R, 2R-Cyclohexanediamine-N,N′][{2-(α,β-D-Galacturon-6-yl-amido)ethyl}propanedioato(2-)-O,O′]Platinum (II)], the GI50 in assay [2] and in assay [6] was 38 µM each time.
As to `COC1OC(C(=O)NCCC2C(=O)[O][Pt]3([NH]C4CCCCC4[NH]3)[O]C2=O)C(O)C(O)C1O` [(78), [1R,2R-Cyclohexanediamine-N,N′][{2-(Methyl-β-D-Glucuron-6-yl-amido)ethyl}propanedioato(2-)-O,O′]Platinum (II)], the GI50 in assay [2] was 76 µM; in assay [3], 103 µM; in assay [6], 15 µM.
